Measurements: article PMC12071598, “Piperazine-Substituted Pyranopyridines Exhibit Antiproliferative Activity and Act as Inhibitors of HBV Virion Production” (International Journal of Molecular Sciences, 2025)
Values after ≈ are worked out from the molar mass of the structure shown. Read-outs that look alike come from different tables or passages of the source.

Columns and labels:
[1] = Cytotoxicity by MTS assay in MDCK cells; format: cell-based; details: dog, read-out: Influenza A Virus CC50
Protocol: Production of influenza A virus (H1N1) stock and its infection of MDCK cells, as well as infection of Vero E6 cells with SARS-CoV-2, were described previously. Cytotoxicity of the compounds towards MDCK and VeroE6 cells was assessed by seeding 18,000 cells/well of […] plates in 0.1 mL DMEM, treating with the compounds for 66 h, and measuring cell viability by MTS assay. As positive controls, oseltamivir and N-hydroxicytidine were used (obtained from Sigma).
The compounds were added at non-toxic concentrations in serum-free DMEM to the respective cells; one hour later, the serial 10-fold dilutions of influenza virus or SARS-CoV-2 were added in serum-free medium, and antiviral activity was determined by the reduction in the infectious titer of the virus by cytopathic action (CPE). Calculation of 50% cytotoxic concentration (CC50) and 50% effective concentration (IC50) was performed by standard methods using Microsoft Excel 5.0 and GraphPad Prism 8 (GraphPad Software Inc., Boston, MA, USA).

HeLa = assay: Antiproliferative activity, MTT assay, HeLa; format: cell-based; details: Homo sapiens, HeLa cervix carcinoma, 72 h
K562 [2] = assay: Antiproliferative activity, MTT assay, K562; format: cell-based; details: Homo sapiens, K562 chronic myeloid leukemia, 72 h
SARS-CoV-2 = assay: microbe, parasite or virus in culture; format: cell-based; details: for IC50: Severe acute respiratory syndrome coronavirus 2, Vero C1008, read-out: SARS-CoV-2 IC50, µM
HSV-1 = assay: microbe, parasite or virus in culture; format: cell-based, herpes simplex virus type 1; details: Human alphaherpesvirus 1, 48 h, read-out: HSV-1 IC50, µM
SH-SY5Y = assay: Antiproliferative activity, crystal violet staining, SH-SY5Y; format: cell-based; details: Homo sapiens, SH-SY5Y neuroblastoma, 72 h
HepaRG = assay: Cytotoxicity towards non-tumor differentiated HepaRG cells, MTT; format: cell-based, human; details: concentration decreasing number of viable cells by 50%; for IC50: Homo sapiens
hepatitis B virus (HBV) = assay: microbe, parasite or virus in culture; format: cell-based; details: Hepatitis B virus, 144 h
PV1 = assay: microbe, parasite or virus in culture; format: cell-based, poliovirus type 1; details: Enterovirus C, 48 h, read-out: PV1 IC50, µM
DU145 = assay: Antiproliferative activity, MTT assay, DU145; format: cell-based; details: Homo sapiens, DU-145, DU145 prostate carcinoma, 72 h
Nrf2/ARE pathway = assay: Status of Nrf2/ARE pathway, real-time RT-PCR in A549 cells; format: cell-based; details: A549, 10 µM, three days
Protocol: Increased ROS production is often counteracted by the induction of antioxidant enzymes, many of which are controlled by the Nrf2 transcription factor [49]. So, we analyzed if the compounds could have activated this antioxidant defense system.
A possible effect of the least-toxic 3 compounds (DO11-37, DO11-45, and DO11-47) on the status of Nrf2/ARE pathway was analyzed by quantification of expression of Nrf2 and Nrf2-dependend genes using real-time PCR analysis. A549 cells were seeded in 6-well plates at a density of 3.09 × 10^5 cells/well in DMEM-F12 media supplemented with FBS and glutamine and treated with 10 µM compounds for three days. Next, total RNA was isolated using CleanRNA standard kit (Evrogen) with subsequent treatment with DNAseI (Roche, Basel, Switzerland), and 2 µg of RNA from each sample was reverse-transcribed using random hexamer primer and mint reverse transcriptase according to manufacturer’s protocol and subjected to real-time PCR as described previously using primers listed in the Table 5.

A549 [3] = assay: Antiproliferative activity, MTT assay, A549; format: cell-based; details: Homo sapiens, A549 lung carcinoma, 72 h
NDV = assay: microbe, parasite or virus in culture; format: cell-based, Newcastle disease virus; details: avian paramyxovirus 1, 48 h, read-out: NDV IC50, µM
VV = assay: microbe, parasite or virus in culture; format: cell-based; details: Orthopoxvirus vaccinia, 48 h, read-out: VV IC50, µM
Influenza A virus = assay: microbe, parasite or virus in culture; format: cell-based, influenza A virus (H1N1)
H1299 cells [4] = assay: Labile Fe2+ levels, HMRhoNox-M in H1299 cells; format: cell-based; details: H1299, 72 h
Protocol: To analyze cell death mechanisms, we stained cells NucView 488 (Biotium, Fremont, CA, USA) probe for caspase 3 and 7 activity, 1 ug/mL of non-permeable DNA dye 7-AAD (BioinnLabs, Russia), and stain for labile Fe2+ HMRhoNox-M (Lumiprobe, Russia). Cells were treated with drugs for 72 h and then stained for 30 min with 2 uM NucView 488 and 2 uM HMRhoNox-M at 37 °C. Then, cells were washed once in DMEM with low autofluorescence, then 1 ug/mL 7-AAD was added, and cells were imaged using Leica DMI8 automated microscope. Fluorescent imaging was performed using 10x objective with the following parameters: for Hoechst-33342 excitation 325–375 nm and emission 435–485 nm, NucView 488 460–500/512–542 nm, HMRho-Nox-M 541–551/565–605 nm, and 7-AAD 590–650/662–738 nm. Cells were segmented using images in bright field with cyto3 model from Cellpose and then processed in CellProfiler. 7-AAD and NucView 488 images were used to segment nuclei of necrotic or apoptotic cells in CellProfiler. If a cell contained nucleus stained with NucView 488, it was considered as apoptotic, and if it contained a nucleus stained only with 7-AAD, it was considered as necrotic. HMRhoNox-M signal was analyzed as mean fluorescence intensity per cell. Experiments were repeated two independent times, and 4 random images were recorded each time.

H1299 cells [5] = assay: Lysosome accumulation, LysoGreen in H1299 cells; format: cell-based; details: H1299, 72 h
Protocol: (§1) H1299 cells were seeded at 750 cells/well density in 96-well plate, treated with drugs for 72 h and then stained with 1 ug/mL Hoechst-33342 (Lumiprobe, Moscow, Russia), 100 nM TMRE (Lumiprobe, Russia) potential-dependent mitochondria stain, 100 nM LumiTracker LysoGreen (Lumiprobe, Russia) stain for acidic lysosomes, and 0.33 ug/mL Tubulin Tracker Deep Red (Invitrogen, USA). Cells were stained at 37 °C for 30 min with all stains, except for LysoGreen, which was added 5 min before imaging. Cells were washed once and imaged in DMEM with low autofluorescence (BioinnLabs, Rostov na Donu, Russia) with Leica DMI8 automated microscope (Wetzlar, Germany). Fluorescent imaging was performed using 10× objective with the following parameters: for Hoechst-33342 excitation 325–375 nm and emission 435–485 nm, LysoGreen 460–500/512–542 nm, TMRE 541–551/565–605 nm, and Tubulin Tracker 590–650/662–738 nm. For nuclei segmentation, we applied cyto3 model from Cellpose v3 [42] to Hoechst-33342 images, and cell cytoplasm was segmented using merged TMRE and Tubulin Tracker images with Sauvola propagation method in CellProfiler v4.2 [43]. Integrated intensity of TMRE and LysoGreen fluorescence for each cell were calculated using CellProfiler. […] Experiments were repeated two independent times, and 4 random images were recorded each time.

H1299 cells [6] = assay: Cell death in H1299 cells, NucView 488 caspase 3/7 and 7-AAD staining; format: cell-based; details: H1299, 72 h; 2.5 and 5 µM DO11-46 or 5 and 10 µM DO11-48
Protocol: To investigate the mechanism of the cytotoxic action of piperazine-substituted pyranopyridines, we evaluated two compounds, namely, DO11-46 and DO11-48, that acted in submicromolar concentrations. The first step was to which type of cell death they induce. This was carried out by staining H1299 cells with 7AAD dye that stains non-viable cells (with damaged membrane) and NucView-488 dye for caspase 3/7 activity as they are activated during apoptosis. Imaging and analysis protocols for H1299 were established earlier, and cells were imaged using automated microscopy and then analyzed using Cellpose and CellProfiler.
To analyze cell death mechanisms, we stained cells NucView 488 (Biotium, Fremont, CA, USA) probe for caspase 3 and 7 activity, 1 ug/mL of non-permeable DNA dye 7-AAD (BioinnLabs, Russia), and stain for labile Fe2+ HMRhoNox-M (Lumiprobe, Russia). Cells were treated with drugs for 72 h and then stained for 30 min with 2 uM NucView 488 and 2 uM HMRhoNox-M at 37 °C. Then, cells were washed once in DMEM with low autofluorescence, then 1 ug/mL 7-AAD was added, and cells were imaged using Leica DMI8 automated microscope. […] HMRhoNox-M signal was analyzed as mean fluorescence intensity per cell. Experiments were repeated two independent times, and 4 random images were recorded each time.

H1299 cells [7] = assay: Mitochondrial membrane potential, TMRE in H1299 cells; format: cell-based; details: H1299, 72 h
Protocol: as §1

A549 cells = assay: Intracellular ROS assay, DCFH2-DA in A549 cells; format: cell-based; details: A549, 10 µM, 72 h
Description: As cell death is often triggered by increased production of reactive oxygen species (ROS), the next step was to evaluate if our compounds act as pro-oxidants. ROS production was accessed using cell-permeable redox sensitive DCFH2-DA dye. […] As one of the main sites of ROS production is mitochondria, we also evaluated their membrane potential during treatment with either DO11-46 or DO11-48. […] Lysosome activation often accompany late stages of apoptosis, which is in good accordance with our data on the induction of caspase3/7 activity.
Pro-oxidant activity of the compounds was studied by quantification of ROS production using a cell-permeable fluorogenic probe 2′,7′-dichlorodihydrofluorescein diacetate (DCFH2-DA). A549 cells were seeded on a 48-well plate at a density of 10,000 cells/well. Twenty-four hours later, the compounds were added to 10 µM concentration in quadruplicate, and the cells were kept for 72 h. As a positive control, A549 cells were treated with 1 mM H2O2 for 2 h prior analysis. Then, media were replaced with the fresh FBS-lacking DMEM supplemented with 25 µM DCFH2-DA. After 45 min incubation, the cells were washed 10 times with 500 µL PBS, resuspended in 200 µL PBS and transferred to a black 96-well plate. The fluorescence intensities (FLIs) were measured using CHAMELEON V microplate reader with excitation at 485 nm and emission at 535 nm.

A549 [8] = details: read-out: IC50 against A549; cited from earlier work
K562 [9] = test system: K562; parameters: method as in PMID 22677031; details: leukemic cell lines (including K562) ref 57; cited from earlier work
[10] = read-out: Extracellular HBV DNA (Δlog10)
[11] = read-out: Intracellular Total HBV RNA (Δlog10)

| SMILES | CC50 at 66 h [1] [µM] | IC50 (HeLa) [µM] | IC50 (K562 [2]) [µM] | SARS-CoV-2 Δlgmax (SARS-CoV-2) | IC50 (SARS-CoV-2) [µM] | IC50 (HSV-1) [µM] | IC50 (SH-SY5Y) [µM] | IC50 (HepaRG) [µM] | log reduction at 1 µM (hepatitis B virus (HBV); [10]) | log reduction at 10 µM (hepatitis B virus (HBV); [10]) | log reduction at 1 µM (hepatitis B virus (HBV); [11]) | log reduction at 10 µM (hepatitis B virus (HBV); [11]) | IC50 (PV1) [µM] | IC50 (DU145) [µM] | IC50 (A549 [3]) [µM] | IC50 (NDV) [µM] | IC50 (VV) [µM] | Influenza A Virus Δlgmax (Influenza A virus) | further results |
| --- | --- | --- | --- | --- | --- | --- | --- | --- | --- | --- | --- | --- | --- | --- | --- | --- | --- | --- | --- |
| COc1cccc(NC(=O)CSc2nc(N3CCNCC3)c3c(c2C#N)CC(C)(C)OC3)c1 [DO11-47, 2-[(5-Cyano-3,3-dimethyl-8-piperazin-1-yl-3,4-dihydro-1H-pyrano[3,4-c]pyridin-6-yl)thio]-N-(3-methoxyphenyl)acetamide] | 810 | 39.3 ± 16.9 | 12.8 ± 4.2 | 0 | > 38 | > 60 | 36.7 ± 18.2 | 437 ± 14.8 | < 0.5 | < 0.5 | < 0.5 | < 0.5 | > 60 | 10 ± 2.9 | 67.8 ± 5.8 | > 60 | > 60 | 0 | IC50 (µM) HepaRG (HepaRG): almost non-toxic; expression of Nrf2, NQO1, HO-1, GCLC, and GCLM genes (Nrf2/ARE pathway): increase was not statistically significant |
| COc1ccccc1NC(=O)CSc1nc(N2CCNCC2)c2c(c1C#N)CC(C)(C)OC2 [DO11-48, 2-[(5-Cyano-3,3-dimethyl-8-piperazin-1-yl-3,4-dihydro-1H-pyrano[3,4-c]pyridin-6-yl)thio]-N-(2-methoxyphenyl)acetamide] | 830 | 2.2 ± 0.6 | 0.5 ± 0.1 | 0 | > 10 | > 3.75 | 18.1 ± 5.1 | 10.9 ± 1.6 | < 0.5 | < 0.5 | < 0.5 | < 0.5 | > 3.75 | 2.5 ± 1.2 | 3.5 ± 0.7 | > 3.75 | > 3.75 | 0 | levels of Fe2+ ions (H1299 cells [4]): did not affect; accumulation of lysosomes (H1299 cells [5]): induced the accumulation of lysosomes; number of apoptotic and necrotic cells (H1299 cells [6]): increased the number of apoptotic and necrotic cells; mitochondrial membrane potential (H1299 cells [7]): neither of them caused mitochondrial dysfunction; ROS generation (A549 cells): significantly increased ROS generation |
| CC(=O)CN1CCN(c2ccc(C(=O)C=Cc3ccc(N(C)C)cc3)cc2)CC1 [dimethylamino-4’-[N-(2-oxopropyl)-1-piperazinyl]chalcone] |  |  |  |  |  |  |  |  |  |  |  |  |  |  |  |  |  |  | IC50 (A549 [8]): 0.19 µM |
| CC(=O)C(=NNc1ccc2c(=O)cc(-c3ccccc3)oc2c1)N1CCCCC1 [11a, 7-[2-(2-oxo-1-(piperidin-1-yl)propylidene)hydrazinyl]-2-phenyl-4H-chromen-4-one] |  |  |  |  |  |  |  |  |  |  |  |  |  |  |  |  |  |  | IC50 against K562 (K562 [9]): 2.56 ± 0.57 µg/mL (≈ 6.57 µM) |
